Where “and” joins values, the source holds several entries; their conditions need not be identical. Equal entries are not always repeated.
How the values were obtained:
[1] = Tolerability in mice: clinical signs of toxicity, body weight, clinical scoring; settings: mouse, in vivo
Method: (§1) Mice were treated with a mixture comprising 93% mono(N^γ-bis-sulfomethyl) Polymyxin E1 or CMS for 5 days and were monitored for clinical signs of toxicity and urine concentrations of KIM-1. […] The normal range of KIM-1 in mouse urine, as stated in the ELISA kit instruction, is 456-8048 pg/ml.
(§2) The mixtures were received as dry powder and were dissolved in the vials in sterile saline to the concentration stated in table 1, immediately prior to injection.
(§3) Once a day for 5 days, mice were treated subcutaneously in the neck region with 0.2 ml corresponding to the doses stated in Table 1. The dosing was based on a mean weight of 28 g.
All the tested mixtures were well tolerated by mice as determined by body weight and clinical scoring.

[2] = test system: KIM-1 (kidney injury molecule-1); experiment: Nephrotoxicity in mice, urinary KIM-1 by ELISA; assay type: in vivo; settings: 80 mg/kg subcutaneously once a day for 5 days; individual mice
Method: Nephrotoxicity was measured using KIM-1 (kidney injury molecule-1) as a biomarker of acute tubular necrosis.
as §1, §2, §3
Urine samples were collected at 24 hrs after the 2nd dosing and 4 hrs after the 5th dosing. Samples were stored at −80° C. until analysed for KIM-1 concentrations
Urine samples were thawed, centrifuged for 5 min at 2000 g and diluted ×50 prior to performing the ELISA according the instruction in the Quantikine ELISA mouse TIM-1/KIM-1/HAVCR Immunoassay kit.

[3] = test system: Pseudomonas aeruginosa (strain PAX11045); experiment: Mouse model with pulmonary infection of Pseudomonas aeruginosa; assay type: in vivo; design: key to Clinical score at T = 19 / Clinical score at T = 22: 0: healthy; 1: minor clinical signs of infection and inflammation like piloerection in the skin, distress and social withdrawal; 2: moderate signs of infection like changed body position, changes in pattern of movement, lack of curiosity or changed activity.; 3: severe signs of infection like stiff movements, forced ventilation,; 4: severe pain, mouse was sacrificed immediately to minimize suffering; 5: The mouse was dead; settings: dose 10 mg/kg, peritoneal
Method: A mouse model with pulmonary infections of Pseudomonas aeruginosa (strain PAX11045) were treated with peritoneal administration of Polymyxin E1, CMS E1 and mono bis-sulfomethylated Polymyxin E1. CFU is the calculated number of colony forming units in the lung tissue after 22 hours except for the non-treatment group of mice.

## Colistimethate sodium [CMS]
[1]
  clinical signs of toxicity: no clinical signs of toxicity

## Gentamicin
[2]
  Urinary KIM-1 concentrations after 5 doses: 12850 pg/mL and 5900 pg/mL and 5750 pg/mL

## Polymyxin E1 [Polymyxin-E1]
[3]; individual mice
  Clinical score at T = 19: 3 (6×) and 2
  Clinical score at T = 22: 4 (2×) and 2 and 3 (4×)
[3]; lung tissue after 22 hours
  mean log10 CFU: 4.43 log10 CFU
[3]; lung tissue after 22 hours, individual mice, 10 mg/kg
  log10 CFU lung: 5.65 log10 CFU and 4.08 log10 CFU and 6.06 log10 CFU and 4.05 log10 CFU and 3.78 log10 CFU and 3.70 log10 CFU and 3.72 log10 CFU
